Laboratory results taken from ChEMBL document CHEMBL2146420, “RXR Partial Agonist CBt-PMN Exerts Therapeutic Effects on Type 2 Diabetes without the Side Effects of RXR Full Agonists” (ACS Med Chem Lett, 2012).
Active and inactive are the calls of the source. The rule behind the calls is not given here.

Key:
[1] = molecular target: T1, Retinoic acid receptor RXR-alpha (Homo sapiens) (UniProt P19793); assay: Agonist activity at RXRalpha expressed in […] Cos1 cells after 18 hrs by SEAP reporter gene assay; assay type: functional, cell-based
T1 sequence (whole entry): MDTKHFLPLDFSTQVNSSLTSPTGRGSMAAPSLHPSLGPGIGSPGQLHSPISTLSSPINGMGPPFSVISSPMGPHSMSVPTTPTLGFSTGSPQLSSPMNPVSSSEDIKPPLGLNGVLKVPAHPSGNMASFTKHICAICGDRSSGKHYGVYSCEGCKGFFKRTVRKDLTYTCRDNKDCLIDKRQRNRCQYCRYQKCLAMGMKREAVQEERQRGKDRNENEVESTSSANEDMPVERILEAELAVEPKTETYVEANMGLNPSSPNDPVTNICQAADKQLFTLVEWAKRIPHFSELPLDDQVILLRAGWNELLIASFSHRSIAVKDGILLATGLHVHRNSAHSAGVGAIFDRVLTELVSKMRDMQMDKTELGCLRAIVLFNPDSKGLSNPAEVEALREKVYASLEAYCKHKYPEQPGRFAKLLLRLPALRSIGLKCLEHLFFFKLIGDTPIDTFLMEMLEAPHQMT

[2] = molecular target: T2, Peroxisome proliferator-activated receptor gamma (Homo sapiens) (UniProt P37231); assay: Agonist activity at PPARgamma expressed in […] Cos1 cells after 18 hrs by SEAP reporter gene assay; assay type: functional, cell-based
T2 sequence (whole entry): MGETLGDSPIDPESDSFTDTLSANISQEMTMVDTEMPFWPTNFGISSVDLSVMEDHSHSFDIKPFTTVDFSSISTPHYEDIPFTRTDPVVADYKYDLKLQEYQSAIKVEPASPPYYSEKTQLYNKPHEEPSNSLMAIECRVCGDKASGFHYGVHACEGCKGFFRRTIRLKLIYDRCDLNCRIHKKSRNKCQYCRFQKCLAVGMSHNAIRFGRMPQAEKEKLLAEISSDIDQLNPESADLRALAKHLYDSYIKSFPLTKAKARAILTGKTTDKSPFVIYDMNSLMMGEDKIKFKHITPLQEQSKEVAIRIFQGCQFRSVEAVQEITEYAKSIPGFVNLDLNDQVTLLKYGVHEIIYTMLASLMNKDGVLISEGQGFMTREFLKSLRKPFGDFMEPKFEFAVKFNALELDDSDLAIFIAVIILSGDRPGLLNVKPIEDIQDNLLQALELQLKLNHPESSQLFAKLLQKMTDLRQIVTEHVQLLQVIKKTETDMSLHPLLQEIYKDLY

[3] = molecular target: RXR alpha/PPAR gamma (Homo sapiens) (UniProt P37231+P19793); assay: Agonist activity at PPARgamma/RXRalpha expressed in […] Cos1 cells after 18 hrs by SEAP reporter gene assay; assay type: functional, cell-based
[4] = molecular target: T3, Oxysterols receptor LXR-alpha (Homo sapiens) (UniProt Q13133); assay: Agonist activity at LXRalpha expressed in […] Cos1 cells after 18 hrs by SEAP reporter gene assay; assay type: functional, cell-based
T3 sequence (whole entry): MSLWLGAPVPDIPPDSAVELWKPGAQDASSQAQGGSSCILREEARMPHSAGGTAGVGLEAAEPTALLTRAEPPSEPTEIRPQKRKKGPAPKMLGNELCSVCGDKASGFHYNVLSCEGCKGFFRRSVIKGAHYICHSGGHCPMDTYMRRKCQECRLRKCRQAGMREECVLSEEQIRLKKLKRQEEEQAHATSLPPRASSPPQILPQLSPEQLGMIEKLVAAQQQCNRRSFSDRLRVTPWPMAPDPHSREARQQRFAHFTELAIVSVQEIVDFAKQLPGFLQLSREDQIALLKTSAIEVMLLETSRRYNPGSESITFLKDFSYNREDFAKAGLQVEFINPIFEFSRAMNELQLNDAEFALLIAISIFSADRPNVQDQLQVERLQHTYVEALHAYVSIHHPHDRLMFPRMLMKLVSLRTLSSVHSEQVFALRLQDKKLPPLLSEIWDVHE

[5] = molecular target: Retinoic acid receptor RXR-alpha/oxysterols receptor LXR-alpha (Homo sapiens) (UniProt P19793+Q13133); assay: Agonist activity at LXRalpha/RXRalpha expressed in […] Cos1 cells after 18 hrs by SEAP reporter gene assay; assay type: functional, cell-based
Serum = assay: Drug level in ICR mouse serum at 30 mg/kg, po; assay type: ADME, organism-based; parameters: dose 30 mg/kg, route oral; details: in vivo, read-out: Drug uptake
Mus musculus [6] = assay: Toxicity in ICR mouse assessed as increase in body weight at 30 mg/kg/day, po for 7 days relative to vehicle-treated control; assay type: organism-based; parameters: route oral; details: in vivo, 168 h
Mus musculus [7] = assay: Toxicity in ICR mouse assessed as increase in liver weight at 30 mg/kg/day, po for 7 days relative to vehicle-treated control; assay type: organism-based; parameters: route oral; details: in vivo, 168 h
Rattus norvegicus = assay: Toxicity in male Sprague-Dawley rat assessed as enlarged testes at 30 mg/kg/day, po for 28 days relative to vehicle-treated control; assay type: organism-based, Testis; parameters: route oral; details: in vivo, 672 h
Mus musculus [8] = assay: Upregulation of Irs2 mRNA expression in KK-Ay mouse liver at 10 mg/kg/day, po administered for 14 days by RT-PCR analysis; assay type: functional, organism-based
Mus musculus [9] = assay: Upregulation of Slc2a1 mRNA expression in KK-Ay mouse liver at 10 mg/kg/day, po administered for 14 days by RT-PCR analysis; assay type: functional, organism-based
Mus musculus [10] = assay: Upregulation of Slc2a2 mRNA expression in KK-Ay mouse liver at 10 mg/kg/day, po administered for 14 days by RT-PCR analysis; assay type: functional, organism-based
Mus musculus [11] = assay: Downregulation of G6p mRNA expression in KK-Ay mouse liver at 10 mg/kg/day, po administered for 14 days by RT-PCR analysis; assay type: functional, organism-based
Mus musculus [12] = assay: Downregulation of Pck mRNA expression in KK-Ay mouse liver at 10 mg/kg/day, po administered for 14 days by RT-PCR analysis; assay type: functional, organism-based
Mus musculus [13] = assay: Upregulation of Fasn mRNA expression in KK-Ay mouse liver at 10 mg/kg/day, po administered for 14 days by RT-PCR analysis; assay type: ADME, organism-based; parameters: route oral; details: in vivo, 336 h
Mus musculus [14] = assay: Toxicity in ICR mouse assessed as increase in serum triglyceride level at 30 mg/kg/day, po for 7 days relative to vehicle-treated control; assay type: organism-based; parameters: route oral; details: in vivo, 168 h
Mus musculus [15] = assay: Antidiabetic activity in diabetic, obese KK-Ay mouse assessed as blood glucose level at 10 mg/kg/day, po administered for 14 days measured on day 3 after starting of dosing (reference value: 500 mg/dL); assay type: functional
Mus musculus [16] = assay: Antidiabetic activity in diabetic, obese KK-Ay mouse assessed as increase in adiponectin level at 10 mg/kg/day, po administered for 14 days by oral glucose tolerance test; assay type: functional, organism-based
Mus musculus [17] = assay: Toxicity in KK-Ay mouse assessed as increase in body weight at 10 mg/kg/day, po administered for 14 days relative to vehicle-treated control; assay type: organism-based; parameters: route oral; details: in vivo, 336 h
Mus musculus [18] = assay: Toxicity in KK-Ay mouse assessed as increase in liver weight at 10 mg/kg/day, po administered for 14 days relative to vehicle-treated control; assay type: organism-based; parameters: route oral; details: in vivo, 336 h
Mus musculus [19] = assay: Toxicity in KK-Ay mouse assessed as increase in serum triglyceride level at 10 mg/kg/day, po administered for 14 days relative to vehicle-treated control; assay type: organism-based; parameters: route oral; details: in vivo, 336 h
Mus musculus [20] = assay: Toxicity in KK-Ay mouse assessed as increase in total cholesterol level at 10 mg/kg/day, po administered for 14 days relative to vehicle-treated control; assay type: organism-based; parameters: route oral; details: in vivo, 336 h
Mus musculus [21] = assay: Upregulation of Irs1 mRNA expression in KK-Ay mouse liver at 10 mg/kg/day, po administered for 14 days by RT-PCR analysis; assay type: functional, organism-based
Mus musculus [22] = assay: Upregulation of Scd1 mRNA expression in KK-Ay mouse liver at 10 mg/kg/day, po administered for 14 days by RT-PCR analysis; assay type: ADME, organism-based; parameters: route oral; details: in vivo, 336 h
Mus musculus [23] = assay: Upregulation of Srebp1c mRNA expression in KK-Ay mouse liver at 10 mg/kg/day, po administered for 14 days by RT-PCR analysis; assay type: functional, organism-based

| Compound | Activity [2] | Activity [3] | Activity [4] | Activity [5] | concentration (Serum) [nM] | Activity (Mus musculus [6]) | Activity (Mus musculus [7]) | Activity (Rattus norvegicus) | further results |
| --- | --- | --- | --- | --- | --- | --- | --- | --- | --- |
| Cc1cc2c(cc1-n1c(C)nc3cc(C(=O)O)ccc31)C(C)(C)CCC2(C)C | inactive | Active | Active | Active | 1000 | Toxic | Toxic | Non-toxic | Activity [1]: Active |
| CCN(c1ccc2c(c1)C(C)(C)CCC2(C)C)c1ccc(C(=O)O)cn1 | inactive | Active | Active | Active | 1000 | Toxic | Toxic | Non-toxic | Activity (Mus musculus [8]): inactive; Activity (Mus musculus [9]): inactive; Activity (Mus musculus [10]): inactive; Activity (Mus musculus [11]): inactive; Activity (Mus musculus [12]): inactive; Activity (Mus musculus [13]): Toxic; Activity (Mus musculus [14]): Toxic; Activity (Mus musculus [15]): 300 mg/dL; Activity (Mus musculus [16]): Active; Activity (Mus musculus [17]): Toxic; Activity (Mus musculus [18]): Toxic; Activity (Mus musculus [19]): Toxic; Activity (Mus musculus [20]): Toxic; Activity (Mus musculus [21]): inactive; Activity (Mus musculus [22]): Toxic; Activity (Mus musculus [23]): inactive |
| Cc1cc2c(cc1-n1nnc3cc(C(=O)O)ccc31)C(C)(C)CCC2(C)C | – | – | – | – | 1000 | – | – | – | – |
